Measured values: patent US20230146923A1, “COMPOSITIONS AND METHODS FOR INHIBITION AND TARGETING OF P97” (California Institute of Technology, priority 2021, published 2023)
Where two headings read alike, the source gives them in different places.

Experiments:
HCT116 cells [1] = assay: TMT labeling proteomics of HCT116 cells treated with MG132, CB-5083 or NMS-873; assay type: cell-based; conditions: for Log2 FC Baculoviral IAP repeat-containing protein 5 (BIRC5) / Log2 FC Cell division cycle protein 20 homolog (CDC20) / Log2 FC F-box only protein 5 (FBXO5) / Log2 FC G1/S-specific cyclin-D1 (CCND1) / Log2 FC Geminin (GMNN) / Log2 FC M-phase inducer phosphatase 2 (CDC25B) / Log2 FC Mitotic checkpoint serine/threonine-protein kinase BUB1 (BUB1) / Log2 FC Myc proto-oncogene protein (MYC) / Log2 FC Origin recognition complex subunit 6 (ORC6) / Log2 FC Ribonucleoside-diphosphate reductase subunit M2 (RRM2) / Log2 FC Securin (PTTG1): compound vs DMSO; for Four XBP1 activated genes/proteins (DNAJB11, SRPR, SRPRB, SYVN1), Log2FC: HCT116, 24 h of treatment, p<0.05
Experimental: HCT116 cells were treated with 1 μM MG132, 2 μM CB-5083 or 4 μM of NMS-874 for 6 h or 24 h, n=2. […] M, C and N represents MG132, CB-5083 and NMS-873, respectively.
As a step toward understanding the differential effects of inhibiting p97 and the proteasome in cancer treatment, the effect of inhibiting p97 was compared to proteasome inhibition using tandem mass tag (TMT) 16-plexed labelling. This technique allowed for capture of alterations in the proteome after exposure to MG132 (proteasome inhibitor) and p97 inhibitors (CB-5083 and NMS-873). […] Samples were pooled together, fractionated into 8 fractions using high pH reverse chromatography, and analyzed using the highly accurate RTS-SPS-MS3 method.

HCT116 cells [2] = assay: Temporal label-free (LFQ) proteomics of HCT116 cells treated with p97 inhibitors; assay type: cell-based; conditions: 4 μM UPCDC-30245, 2 μM CB-5083, 4 μM NMS-873
Experimental: This percentage was calculated by dividing the number of overlapping proteins by the sum of all DE proteins identified by p97 KD and/or inhibitor treatment. HCT116 cells were treated with 4 μM UPCDC-30245, 2 μM CB-5083 or 4 μM of NMS-874 for the indicated time points, n=2.
To explore the temporal proteomic profiles of p97 inhibition, HCT116 cells were treated with DMSO, and p97 inhibitors (CB-5083, NMS-873 or UPCDC-30245) for 2 h, 6 h, 10 h, 18 h, or 24 h in duplicate. […] To compare the proteomic profile of p97 shRNA KD to that of different p97 inhibitors, DE proteins identified through p97 KD were compared with those identified under different inhibitor treatments (p<0.05) at each time point. […] To reveal the cellular effects common to both p97 KD and p97 inhibitors, overlapping DE proteins across different timepoints for each inhibitor treatment were combined.

cyclin D1 [3] = conditions: Parisi et al. [71]; cited from earlier work
Securin [4] = assay: Securin degradation (CHX chase) in HCT116 cells; assay type: cell-based; conditions: HCT116, pretreated with MG132 for 1 h, then 2 μM CB-5083 with 50 μM CHX
Experimental: (§1) The concentration of MG132, CB-5083 and Baf A1 was 1 μM, 2 μM and 10 μM, respectively. […] FIGS. 13D-13E depict the half-life of Securin in HCT116 cells. HCT116 cells were treated with 1 μM of MG132, 2 μM of CB-5083, 1 μM of MG132 plus 2 μM of CB-5083 or DMSO. […] Cells were pretreated with […] for 1 h. […] For FIGS. 13B-13G, D, B, M, C and N represents DMSO, Baf A1, MG132, CB-5083 and NMS-873, respectively. Data are shown as mean±SD. Statistical analysis was performed using one-way ANOVA.

HCT116 cells [5] = assay: Cell cycle analysis (DNA content); assay type: cell-based; conditions: HCT116, 24 h
Experimental: FIG. 7A depicts cell cycle analysis of HCT116 cells after 24 h of treatments with DMSO, 1 μM of MG132 (MG) or 2 μM of CB-5083. […] Data were from TMT labeling proteomics. M, C and N indicates MG132, CB-5083 and NMS-873 treatment, respectively. […] HCT116 cells were treated for 24 h with DMSO, 1 μM of MG132 (MG), 2 μM of CB-5083 (CB) or 4 μM of NMS-873 (NMS), n=3.

[6] = tested on: cancer cell proliferation; conditions: ref [22]; cited from earlier work
HCT116 cells [7] = conditions: HCT116, 6 h treatment, 2 μM CB-5083
Experimental: as §1

Securin [8] = conditions: HT29, pretreated with MG132 for 1 h, then 2 μM CB-5083 with 50 μM CHX
Experimental: as §1

HCT116 tumor cells = conditions: mouse xenograft models implanted with HCT116 tumor cells, ref [22]; cited from earlier work
cyclin D1 [9] = assay: Cyclin D1 level and degradation (co-treatment, CHX chase); assay type: cell-based; conditions: HCT116, 6 hours; MG132 1 μM, CB-5083 2 μM, Baf A1 10 μM
Experimental: FIGS. 12A-12C depicts Western blots detecting the effects of p97 inhibitors and MG132 on cell cycle proteins in HT29 and HCT116 cells. […] Then, 50 μM of CHX was added and cells were collected at 0 h, 0.5 h, and 1 h. FIG. 12C depicts half-life of cyclin D1 in HCT116 cells. HCT116 cells were pre-treated with 5 μM of CB-5083 or DMSO for 30 minutes before adding 50 μM of CHX, and cells were collected at 0, 10, 20, 30 min (n=3), * indicates p<0.05 according to unpaired t-test.
as §1
Cells were co-treated with CB-5083 and either the proteasome inhibitor MG132 or the autophagy inhibitor Bafilomycin A1 (Baf A1).

Row | Compound | Log2 FC Baculoviral IAP repeat-containing protein 5 (BIRC5) (HCT116 cells [1]; HCT116, 6 h treatment) | Log2 FC Cell division cycle protein 20 homolog (CDC20) (HCT116 cells [1]; HCT116, 6 h treatment) | Log2 FC F-box only protein 5 (FBXO5) (HCT116 cells [1]; HCT116, 6 h treatment) | Log2 FC G1/S-specific cyclin-D1 (CCND1) (HCT116 cells [1]; HCT116, 6 h treatment) | Log2 FC Geminin (GMNN) (HCT116 cells [1]; HCT116, 6 h treatment) | Log2 FC M-phase inducer phosphatase 2 (CDC25B) (HCT116 cells [1]; HCT116, 6 h treatment) | Log2 FC Mitotic checkpoint serine/threonine-protein kinase BUB1 (BUB1) (HCT116 cells [1]; HCT116, 6 h treatment) | Log2 FC Myc proto-oncogene protein (MYC) (HCT116 cells [1]; HCT116, 6 h treatment) | Log2 FC Origin recognition complex subunit 6 (ORC6) (HCT116 cells [1]; HCT116, 6 h treatment) | Log2 FC Ribonucleoside-diphosphate reductase subunit M2 (RRM2) (HCT116 cells [1]; HCT116, 6 h treatment) | Log2 FC Securin (PTTG1) (HCT116 cells [1]; HCT116, 6 h treatment) | Four XBP1 activated genes/proteins (DNAJB11, SRPR, SRPRB, SYVN1), Log2FC (HCT116 cells [1]) | Log2 FC Baculoviral IAP repeat-containing protein 5 (BIRC5) (HCT116 cells [1]; HCT116, 24 h treatment) | Log2 FC Cell division cycle protein 20 homolog (CDC20) (HCT116 cells [1]; HCT116, 24 h treatment) | Log2 FC F-box only protein 5 (FBXO5) (HCT116 cells [1]; HCT116, 24 h treatment) | Log2 FC G1/S-specific cyclin-D1 (CCND1) (HCT116 cells [1]; HCT116, 24 h treatment) | Log2 FC Geminin (GMNN) (HCT116 cells [1]; HCT116, 24 h treatment) | Log2 FC M-phase inducer phosphatase 2 (CDC25B) (HCT116 cells [1]; HCT116, 24 h treatment) | Log2 FC Mitotic checkpoint serine/threonine-protein kinase BUB1 (BUB1) (HCT116 cells [1]; HCT116, 24 h treatment) | UPR proteins and those linked to protein processing in the ER (HCT116 cells [2]) | further results
1 | Cc1cc(OCc2nnc(SC3CCCC3)n2-c2cccnc2)ccc1-c1ccc(S(C)(=O)=O)cc1 [NMS-873, 3-[3-cyclopentylsulfanyl-5-[[3-methyl-4-(4-methylsulfonylphenyl)phenoxy]methyl]-1,2,4-triazol-4-yl]pyridine] | −0.5 | −0.6 | −1.1 | −1.8 | −0.6 | −1.6 | −0.4 | −1.1 | −0.5 | −0.3 | −1.2 | significantly upregulated | −2.0 | −2.8 | −2.4 | −3.2 | −1.8 | −2.2 | −2.1 | upregulated | Log2 FC Myc proto-oncogene protein (MYC) (HCT116 cells [1]; HCT116, 24 h treatment): −1.1; Log2 FC Origin recognition complex subunit 6 (ORC6) (HCT116 cells [1]; HCT116, 24 h treatment): −0.6; Log2 FC Ribonucleoside-diphosphate reductase subunit M2 (RRM2) (HCT116 cells [1]; HCT116, 24 h treatment): −2.7; Log2 FC Securin (PTTG1) (HCT116 cells [1]; HCT116, 24 h treatment): −2.9
2 | c1ccc(CNc2nc(NCc3ccccc3)c3ccccc3n2)cc1 [DBeQ, N^2,N^4-Bis(phenylmethyl)-2,4-quinazolinediamine] | – | – | – | – | – | – | – | – | – | – | – | – | – | – | – | – | – | – | – | – | Cyclin D1 degradation (cyclin D1 [3]): promotes cyclin D1 degradation
3 | Cc1cc2c(C(N)=O)cccc2n1-c1nc2c(c(NCc3ccccc3)n1)COCC2 [CB-5083] | −0.5 | −0.4 | −0.8 | −1.4 | −0.4 | −1.1 | −0.3 | −0.5 | −0.4 | −0.2 | −0.9 | significantly upregulated | −0.8 | −1.5 | −1.0 | −2.0 | −1.1 | −1.6 | −1.1 | upregulated | Degradation of Securin after MG132 pretreatment (Securin [4]): slightly accelerated the degradation of Securin; Potency in reducing G0/G1 and increasing G2/M distribution compared to MG132 (HCT116 cells [5]): less potent; Distribution of cells in the G0/G1 phase (HCT116 cells [5]; 1 μM MG132, 2 μM CB-5083): reduced distribution in the G0/G1 phase; Cancer cell proliferation [6]: strongly inhibited cancer cell proliferation; Log2 FC Myc proto-oncogene protein (MYC) (HCT116 cells [1]; HCT116, 24 h treatment): −0.7; Log2 FC Origin recognition complex subunit 6 (ORC6) (HCT116 cells [1]; HCT116, 24 h treatment): −0.3; Log2 FC Ribonucleoside-diphosphate reductase subunit M2 (RRM2) (HCT116 cells [1]; HCT116, 24 h treatment): −1.1; Log2 FC Securin (PTTG1) (HCT116 cells [1]; HCT116, 24 h treatment): −1.9; RNA level of CDC20 (HCT116 cells [7]): downregulated; Degradation of Securin after MG132 pretreatment (Securin [8]): slightly accelerated the degradation of Securin; Tumor growth (HCT116 tumor cells): efficacious in inhibiting tumor growth
4 | CO/C1=C\C(C)=C\[C@@H](C)[C@@H](O)[C@@H](C)C/C(C)=C/C=C/[C@H](OC)[C@@H]([C@@H](C)[C@@H](O)[C@H](C)[C@@]2(O)C[C@@H](O)[C@H](C)[C@@H](C(C)C)O2)OC1=O [Baf A1, Bafilomycin A1] | – | – | – | – | – | – | – | – | – | – | – | – | – | – | – | – | – | – | – | – | Effect on CB-5083 mediated cyclin D1 downregulation (co-treatment) (cyclin D1 [9]): no effect on cyclin D1 levels
5 | CC(C)N1CCN(CCNC2CCN(c3cccc(-c4cc5cc(F)ccc5[nH]4)c3)CC2)CC1 [UPCDC-30245, 1-(3-(5-Fluoro-1H-indol-2-yl)phenyl)-N-(2-(4-isopropylpiperazin-1-yl)ethyl)piperidin-4-amine] | – | – | – | – | – | – | – | – | – | – | – | – | – | – | – | – | – | – | – | not | –
